According to patent US20100240760A1 (priority 2005, published 2010):

Experiments:
[1] = test system: patients with mild-to-moderate essential hypertension; assay: Clinical trial A2201 (Example I): aliskiren vs placebo and irbesartan, 8 weeks; format: in vivo, human; conditions: for MSDBP responders / MSSBP responders: ITT population at Endpoint, aliskiren 150-600 mg groups, irbesartan 150 mg; for MSDBP responders: responder: MSDBP <90 mm Hg or ≧10 mm Hg reduction from baseline; for MSSBP responders: responder: MSSBP <140 mm Hg or ≧20 mm Hg reduction from baseline; for mean increase in active renin: ITT population
From the text: The clinical trial. A multicenter, randomized, double-blind, parallel group clinical trial was designed to explore the efficacy and safety of aliskiren compared to placebo in a population of mild-to-moderate hypertensive patients. The treatment was for eight weeks, i.e., the clinical trial endpoint was at eight weeks for this particular trial. […] The majority of patients were Caucasian and younger than 65 years of age, with a mean age in the mid 50s. The overall distribution of males and females was even. The primary efficacy variable analysed was MSDBP change (reduction in MSDBP from baseline). The secondary efficacy variables analysed were MSSBP change (reduction in MSSBP from baseline), responder ratio, plasma renin activity (PRA) reduction and active plasma renin (AREN) increase from baseline.

[2] = test system: sodium-depleted marmosets; conditions: p.o. or i.v.; cited from earlier work
[3] = humans; cited from earlier work
[4] = test system: hypertensive patients; assay: Clinical trial A2203 (Example II): aliskiren, valsartan and combinations, 6 weeks; format: in vivo, human
[5] = test system: patients with mild-to-moderate essential hypertension; assay: Pharmacogenetic analysis of A2201 (Example I): response by ACE and AGTR2 genotype; format: in vivo, human; conditions: aliskiren treated groups pooled
[6] = test system: patients with mild-to-moderate essential hypertension; assay: Clinical trial A2201 (Example I): aliskiren vs placebo and irbesartan, 8 weeks; format: in vivo, human; conditions: 75, 150, or 300 mg once daily; mild-to-moderate hypertensive patients
[7] = test system: patients with mild-to-moderate essential hypertension; assay: Re-analysis of A2201 by genotype (Example II model, LSMEAN, race as covariate); format: in vivo, human; conditions: all aliskiren treated groups in A2201
From the text: Samples. Patients participating in the clinical trial A2201 (see, EXAMPLE I) and clinical trial A2203 were asked to provide a separate consent for participation in pharmacogenetic analysis. Blood samples from all consenting patients were collected at the individual trial sites and then shipped to Covance (Indianapolis, Ind.). The genomic DNA of each patient was extracted from the blood by Covance using the […]™ DNA Isolation Kit (D-50K) (Gentra, Minneapolis, Minn.) and shipped to NIBR for genotyping. Ultimately, 511 patients from the clinical trial in EXAMPLE I (A2201) were genotyped, with roughly equal ratios of each treatment arm.
The primary efficacy variable was MSDBP change (reduction in MSDBP from baseline at end point). The secondary efficacy variables are MSSBP change (reduction in MSSBP from baseline at end point), responder ratio, plasma renin activity (PRA) reduction and active plasma renin (AREN) increase from baseline.
Genotyping. SNP assays were designed using information from the public dbSNP database and the proprietary Celera/ABI database. The resulting probe sets for the genotyping assay were generated for ABI's Assays-by-Design® platform. Livak K J et al., Nat. Genet. 9: 341-2 (1995). Genotyping was performed on 10 ng of genomic DNA according to the manufacturer's instructions.
Statistical analysis. Genotype-phenotype association studies and related analyses were performed in SAS (Cary, N.C.) using Analyst.
Association tests used categorical genotypes as the independent variable, with no assumption about dominance, and the various efficacy variables as dependent variables. Tests of continuous dependent variables used an ANCOVA analysis, and logistic regression was used for categorical dependent variables. Note that none of the results have been adjusted for multiple hypothesis testing. […] Covariates in the genotype-phenotype association analysis were: (1) dose level of treatment; (2) trial region coded as STU1A in A2201 (see EXAMPLE I) or REGION in A2203; (3) baseline measurement of MSDBP and MSSBP; and (4) race. Analysis was performed in all the samples from the three aliskiren treated arms first.

[8] = SNP_4769 genotype CT (n 14), listed as Aliskiren
[9] = SNP_4769 genotype TT (n 278), listed as Aliskiren

COCCCOc1cc(C[C@@H](C[C@H](N)[C@@H](O)C[C@H](C(=O)NCC(C)(C)C(N)=O)C(C)C)C(C)C)ccc1OC [aliskiren, Aliskiren]
MSDBP responders [1]: 59-67% | MSSBP responders [1]: 57-68% | mean increase in active renin ([1]; 150 mg): 20.8 mu/mL | mean increase in active renin ([1]; 300 mg): 29.9 mu/mL | mean increase in active renin ([1]; 600 mg): 93.6 mu/mL | MSDBP reduction, comparison across treatment groups ([1]; aliskiren 300 and 600 mg): greatest reductions | MSSBP reduction, comparison across treatment groups ([1]; aliskiren 300 and 600 mg): greatest reductions | MSSBP reduction, comparison with placebo and irbesartan ([1]; aliskiren 300 and 600 mg, at Endpoint): statistically superior to placebo and irbesartan | inhibition of plasma renin activity (PRA) [2]: complete inhibition | mean arterial pressure (MAP) [2]: sustained reductions | plasma concentrations of active and total renin [2]: significant increases | Cmax and AUC dependence on dose [3]: increase with dose, but in a non-linear fashion | bioavailability [3]: approximately 2.7% | half-life [3]: approximately 25 hours | time to peak plasma levels after administration [3]: 3 to 5 h | change from baseline in MSDBP, aliskiren monotherapy vs. placebo ([4]; aliskiren 300 mg group, 6 weeks): statistically significant | dose-response and magnitude of placebo-subtracted effects ([4]; preliminary clinical study results summary, placebo response 8.6 mmHg): lower than expected | MSDBP reduction ([5]; SNP_1445 genotype AA (n 106)): −11.2 mmHg | MSSBP reduction ([5]; SNP_1445 genotype AA (n 106)): −13.9 mm Hg | MSDBP reduction ([5]; SNP_1445 genotype AG (n 69)): −13.2 mmHg | MSSBP reduction ([5]; SNP_1445 genotype AG (n 69)): −15.7 mm Hg | MSDBP reduction ([5]; SNP_1445 genotype GG (n 118)): −9.3 mmHg | MSSBP reduction ([5]; SNP_1445 genotype GG (n 118)): −11.8 mm Hg | MSDBP reduction ([5]; SNP_4769 genotype CT (n 14)): 4.7 mmHg | MSSBP reduction ([5]; SNP_4769 genotype CT (n 14)): 6.2 mm Hg | MSDBP reduction [5, 8]: −4.7 mmHg | MSSBP reduction [5, 8]: −6.2 mm Hg | MSDBP reduction ([5]; SNP_4769 genotype TT (n 278)): 11.1 mmHg | MSSBP reduction ([5]; SNP_4769 genotype TT (n 278)): 13.7 mm Hg | MSDBP reduction [5, 9]: −11.1 mmHg | MSSBP reduction [5, 9]: −13.7 mm Hg | MSDBP reduction ([5]; SNP_4795 genotype AA (n 115)): −9.0 mmHg | MSSBP reduction ([5]; SNP_4795 genotype AA (n 115)): −11.5 mm Hg | MSDBP reduction ([5]; SNP_4795 genotype GA (n 72)): −13.3 mmHg | MSSBP reduction ([5]; SNP_4795 genotype GA (n 72)): −16.3 mm Hg | MSDBP reduction ([5]; SNP_4795 genotype GG (n 106)): −11.1 mmHg | MSSBP reduction ([5]; SNP_4795 genotype GG (n 106)): −13.6 mm Hg | daytime ambulatory systolic blood pressure (DASBP) [6]: statistically significant reduction | LSMEAN of MSDBP reduction ([7]; SNP_1445 genotype AA (n 106)): −11.0 mmHg | LSMEAN of MSSBP reduction ([7]; SNP_1445 genotype AA (n 106)): −11.2 mmHg | Responder rate ([7]; SNP_1445 genotype AA (n 106)): 75% | LSMEAN of MSDBP reduction ([7]; SNP_1445 genotype AG (n 69)): −13.3 mmHg | LSMEAN of MSSBP reduction ([7]; SNP_1445 genotype AG (n 69)): −13.8 mmHg | Responder rate ([7]; SNP_1445 genotype AG (n 69)): 71% | LSMEAN of MSDBP reduction ([7]; SNP_1445 genotype GG (n 118)): −9.4 mmHg | LSMEAN of MSSBP reduction ([7]; SNP_1445 genotype GG (n 118)): −9.8 mmHg | Responder rate ([7]; SNP_1445 genotype GG (n 118)): 58% | Responder rate ([7]; SNP_4769 genotype CT (n 14)): 14% | LSMEAN of MSDBP reduction ([7]; SNP_4795 genotype AA (n 115)): −9.2 mmHg | LSMEAN of MSSBP reduction ([7]; SNP_4795 genotype AA (n 115)): −9.5 mmHg | Responder rate ([7]; SNP_4795 genotype AA (n 115)): 57% | LSMEAN of MSDBP reduction ([7]; SNP_4795 genotype GA (n 72)): −13.4 mmHg | LSMEAN of MSSBP reduction ([7]; SNP_4795 genotype GA (n 72)): −14.2 mmHg | Responder rate ([7]; SNP_4795 genotype GA (n 72)): 74% | LSMEAN of MSDBP reduction ([7]; SNP_4795 genotype GG (n 106)): −10.8 mmHg | LSMEAN of MSSBP reduction ([7]; SNP_4795 genotype GG (n 106)): −10.8 mmHg | Responder rate ([7]; SNP_4795 genotype GG (n 106)): 75%

CCCCC1=NC2(CCCC2)C(=O)N1Cc1ccc(-c2ccccc2-c2nnn[nH]2)cc1 [irbesartan]
MSDBP responders [1]: 56% | MSSBP responders [1]: 59% | mean increase in active renin ([1]; 150 mg): 11.2 mu/mL
